The values that follow are results of earlier work, collected in patent US10130658B2, “Method of ex vivo enhancement of immune cell activity for cancer immunotherapy with a small molecule ablative compound” (Provectus Pharmatech, Inc., priority 2015, dated 2018).

The subject of one series is Hela cells. Conditions: treated for 1 hour following photodynamic irradiation.

Turning to `O=C1OC2(c3cc(I)c(O)c(I)c3Oc3c2cc(I)c(O)c3I)c2c(Cl)c(Cl)c(Cl)c(Cl)c21` [RB, 4,5,6,7-tetrachloro-2′,4′,5′,7′-tetraiodofluorescein], the “time to autolyse tumor cells” value with tumor cells (accumulates in lysosomes of tumor cells) is 30 to 60 min. In the series on tumor cells (normal cells), the “uptake into normal cells” value was “excluded”.

Consider `CC(=O)Oc1c(I)cc2c(c1I)Oc1c(cc(I)c(OC(C)=O)c1I)C21OC(=O)c2c(Cl)c(Cl)c(Cl)c(Cl)c21` [rose bengal acetate], for which the HMGB1 release entry in the series on Hela cells is “passively released”.
